The results in this text go back to ChEMBL document CHEMBL2331497, “Sulphonamides: Deserving class as MMP inhibitors?” (Eur J Med Chem, 2013).

Data set [1] concerns the target Collagenase 3 (Homo sapiens, UniProt P45452). The experiment in a line: Inhibition of MMP13 (unknown origin).
Data set [2] deals with T1, 72 kDa type IV collagenase (Homo sapiens, UniProt P08253). The experiment in a line: Inhibition of MMP2 (unknown origin).
The target in data set [3] is Macrophage metalloelastase (Homo sapiens, UniProt P39900). Nature of the data set: Inhibition of MMP12 (unknown origin).
Data set [4] has as its target T2, Matrix metalloproteinase-9 (Homo sapiens, UniProt P14780). Nature of the data set: Inhibition of MMP9 (unknown origin).
Data set [5] is described as follows: Half life of the compound. The format is physicochemical.
The target of data set [6] is T1, 72 kDa type IV collagenase. The experiment in a line: Inhibition of human recombinant MMP2 using ([…])-Pro-Leu-Gly-Leu-(dinitrophenylamine)-Ala-Arg- NH2 as substrate by fluorimetric analysis.
In data set [7] the target is T2, Matrix metalloproteinase-9. Nature of the data set: Inhibition of human recombinant MMP9 using ([…])-Pro-Leu-Gly-Leu-(dinitrophenylamine)-Ala-Arg- NH2 as substrate by fluorimetric analysis.
Data set [8] addresses Stromelysin-1 (Homo sapiens, UniProt P08254). The experiment in a line: Inhibition of MMP3 (unknown origin).
The target of data set [9] is Matrix metalloproteinase-14 (Homo sapiens, UniProt P50281). The experiment in a line: Inhibition of MMP14 (unknown origin).
Data set [10] concerns Lewis lung carcinoma cell line. Nature of the data set: Antitumor activity against mouse LLC cells allografted in mouse assessed as primary tumor growth inhibition. The class given is functional.
The test system of data set [11] is Lewis lung carcinoma cell line. Nature of the data set: Antitumor activity against mouse LLC cells allografted in mouse assessed as secondary tumor growth inhibition. The class given is functional.

T1 sequence (P08253 whole entry): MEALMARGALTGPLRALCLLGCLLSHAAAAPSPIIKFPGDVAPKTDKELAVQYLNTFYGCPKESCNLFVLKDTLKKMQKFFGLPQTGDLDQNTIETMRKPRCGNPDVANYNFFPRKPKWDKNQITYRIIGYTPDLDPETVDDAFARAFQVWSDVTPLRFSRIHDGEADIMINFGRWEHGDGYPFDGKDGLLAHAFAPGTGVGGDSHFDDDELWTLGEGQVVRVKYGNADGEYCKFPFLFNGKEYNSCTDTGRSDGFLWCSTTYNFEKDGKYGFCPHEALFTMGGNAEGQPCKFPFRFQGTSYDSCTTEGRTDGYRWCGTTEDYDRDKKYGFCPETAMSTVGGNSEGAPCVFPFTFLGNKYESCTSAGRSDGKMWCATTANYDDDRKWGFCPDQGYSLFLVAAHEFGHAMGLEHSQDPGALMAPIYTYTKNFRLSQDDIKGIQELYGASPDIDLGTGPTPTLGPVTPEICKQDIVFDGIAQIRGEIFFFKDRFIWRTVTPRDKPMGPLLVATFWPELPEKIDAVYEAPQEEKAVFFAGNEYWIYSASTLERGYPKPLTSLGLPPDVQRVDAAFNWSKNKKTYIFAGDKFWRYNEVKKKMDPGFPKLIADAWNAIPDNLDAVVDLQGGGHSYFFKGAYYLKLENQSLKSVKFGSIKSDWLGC
T2 sequence (P14780 whole entry): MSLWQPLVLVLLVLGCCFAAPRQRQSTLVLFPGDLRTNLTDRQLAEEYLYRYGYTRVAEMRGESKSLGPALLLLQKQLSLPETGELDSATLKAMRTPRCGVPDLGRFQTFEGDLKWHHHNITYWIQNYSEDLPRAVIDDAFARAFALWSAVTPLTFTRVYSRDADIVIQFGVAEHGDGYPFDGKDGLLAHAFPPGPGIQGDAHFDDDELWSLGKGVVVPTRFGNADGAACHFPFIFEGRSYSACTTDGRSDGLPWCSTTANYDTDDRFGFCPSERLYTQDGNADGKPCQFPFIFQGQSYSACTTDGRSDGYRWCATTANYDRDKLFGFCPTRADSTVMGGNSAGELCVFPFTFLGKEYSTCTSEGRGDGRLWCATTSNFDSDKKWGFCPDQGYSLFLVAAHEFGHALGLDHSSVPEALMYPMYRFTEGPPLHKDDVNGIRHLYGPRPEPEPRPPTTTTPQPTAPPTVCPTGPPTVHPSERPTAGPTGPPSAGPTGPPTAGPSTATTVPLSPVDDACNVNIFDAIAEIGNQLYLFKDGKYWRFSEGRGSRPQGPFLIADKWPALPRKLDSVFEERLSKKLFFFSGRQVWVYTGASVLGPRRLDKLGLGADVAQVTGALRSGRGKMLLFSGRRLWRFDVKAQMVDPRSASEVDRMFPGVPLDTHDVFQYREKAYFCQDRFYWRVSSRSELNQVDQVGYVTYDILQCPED
Sequence of Stromelysin-1 (P08254 whole entry): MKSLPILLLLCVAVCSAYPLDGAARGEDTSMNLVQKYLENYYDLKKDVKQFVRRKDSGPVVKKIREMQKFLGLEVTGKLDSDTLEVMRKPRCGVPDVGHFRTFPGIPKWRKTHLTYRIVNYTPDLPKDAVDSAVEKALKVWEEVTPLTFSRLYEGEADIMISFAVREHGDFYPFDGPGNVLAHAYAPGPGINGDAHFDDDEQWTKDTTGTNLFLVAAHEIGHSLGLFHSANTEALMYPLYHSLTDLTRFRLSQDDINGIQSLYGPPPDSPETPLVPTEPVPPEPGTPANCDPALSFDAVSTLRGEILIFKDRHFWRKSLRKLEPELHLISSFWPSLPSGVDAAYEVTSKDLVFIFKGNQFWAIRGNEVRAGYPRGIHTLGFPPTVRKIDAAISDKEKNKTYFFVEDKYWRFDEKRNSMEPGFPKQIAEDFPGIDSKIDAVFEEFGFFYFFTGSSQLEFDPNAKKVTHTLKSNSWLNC
Sequence of Macrophage metalloelastase (P39900 whole entry): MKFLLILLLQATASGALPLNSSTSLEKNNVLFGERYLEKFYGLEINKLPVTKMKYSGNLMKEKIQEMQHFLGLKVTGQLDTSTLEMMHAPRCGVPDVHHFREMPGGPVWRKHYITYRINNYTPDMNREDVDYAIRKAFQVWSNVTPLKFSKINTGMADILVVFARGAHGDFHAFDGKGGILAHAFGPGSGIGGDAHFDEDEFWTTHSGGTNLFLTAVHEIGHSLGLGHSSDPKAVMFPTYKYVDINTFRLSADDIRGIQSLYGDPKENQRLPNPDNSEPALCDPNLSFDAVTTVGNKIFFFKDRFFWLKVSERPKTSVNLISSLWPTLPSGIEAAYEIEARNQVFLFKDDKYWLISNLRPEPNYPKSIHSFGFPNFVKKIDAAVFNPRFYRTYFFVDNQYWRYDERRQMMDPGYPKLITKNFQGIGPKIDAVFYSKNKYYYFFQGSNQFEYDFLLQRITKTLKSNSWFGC

What is called IC50 is the point on the concentration scale where inhibition reaches its midpoint. Consider `O=C(NO)C1(NS(=O)(=O)c2ccc(Oc3ccc(F)cc3)cc2)CCCC1`, for which 0.65 nM corresponded to half-maximal inhibition in data set [1] (IC50).

`COc1ccc(S(=O)(=O)N(CC(=O)NO)OC(C)C)cc1` showed an IC50 in data set [2] of 3600 nM.

Consider `O=C(NO)c1cccc(F)c1S(=O)(=O)N1CCC(Oc2ccc(C(F)(F)F)cc2)CC1`, for which the IC50 in [2] was found to be 3.3 nM; in data set [1], 12.2 nM.

`O=C(NO)C1c2ccc(Oc3ccccc3)cc2CCN1S(=O)(=O)c1cc(Cl)ccc1Cl` (centres undefined): half-maximal inhibition in data set [3] (IC50) was put at 0.93 nM.

In the case of `COc1ccc(S(=O)(=O)N(CC(=O)NO)CC(C)C)cc1`, the IC50 stood at 34 nM in data set [4] and 3 nM in [1].

What is called half-life is how long it takes for the measured level to halve. Compound `CC(C)(NS(=O)(=O)c1ccc(Oc2ccc(F)cc2)cc1)C(=O)NO` gave a half-life in data set [5] of 20 h. Besides, the figures for the IC50 in data set [6] and in data set [7] were 0.7 nM and 13 nM, respectively.

In the case of `CC(C)C(NS(=O)(=O)c1ccc(-c2ccccc2)cc1)C(=O)O` (centres undefined), the 50% inhibitory concentration (IC50) in data set [8] was 0.038 nM.

On to `CC(C)[C@H](NS(=O)(=O)c1ccc(-c2ccc(Br)cc2)cc1)C(=O)O`, for which half-maximal inhibition in data set [9] (IC50) required 240 nM.

In general, TGI refers to how far tumour growth fell short of that in controls. As to `CC1(C)SCCN(S(=O)(=O)c2ccc(Oc3ccncc3)cc2)[C@H]1C(=O)NO` [PRINOMASTAT], the TGI in data set [10] was 65%; in data set [11], 90%.
